Laboratory results taken from ChEMBL document CHEMBL1159332, “Equilibrating isomers: bromoindoles and a seco-xanthine encountered during a study of nematocides from the southern Australian marine sponge Hymeniacidon sp” (2002).
Calls of active or inactive are those of the source. The calls are words filed in the database; no cut-off is given here.

Test system: Haemonchus contortus
Experiment: Nematocidal activity against Haemonchus contortus
Type: functional

Structure (SMILES)	LD99 [µg/mL]	Activity
CCOC(=O)/C=C/c1c[nH]c2cc(Br)ccc12	42	
CCOC(=O)/C=C\c1c[nH]c2cc(Br)ccc12	42	
CNc1c(N(C)C=O)c(=O)n(C)c(=O)n1C		inactive
COC(=O)/C=C\c1c[nH]c2cc(Br)ccc12	50	
COC(=O)/C=C/c1c[nH]c2cc(Br)ccc12	50	
